Test results as given in patent publication US4322426A, “17-Substituted-6-desoxy-7,8-dihydro-6α-methylnoroxymorphone narcotic antagonists” (priority 1980, dated 1982).

Key:
[1] = tested on: pain induced by phenylquinone; test: Phenylquinone writhing test (PQW), analgesic activity; type: in vivo, female white mice; details: oral
Method: A standard procedure for detecting and comparing the analgesic activity of a series of compounds for which there is good correlation with human efficacy is the standard phenylquinone writhing test (PQW) modified from Siegmund, et al., Proc. Soc. Exp. Biol. Med., 95, 729 (1957). A test compound suspended in 1% methocellulose was given orally to fasted (17-21 hours) female white mice, 5-20 animals per double blind test. Aqueous (0.1% phenyl-p-benzoquinone) phenylquinone was injected intraperitoneally at 24 minutes later using 0.20 ml per mouse. […] The effective analgesic dose for 50% of the mice (ED50) was calculated by the moving average method of Thompson, W. R., Bact. Rev., 11, 115-145 (1947).

[2] = tested on: Straub tail induced by morphine; test: Anti-Straub Tail test, antagonism of morphine-induced Straub tail; type: in vivo, Female CF1 S mice; details: relative to naloxone
Method: Narcotic analgesics produce in mice an erection and arching of the tail (90° or more) which is referable to spinal cord stimulation. This Straub tail reaction is not produced by other analgesics, including the narcotic antagonists.
H. B. Dayton and P. S. Wolf, The Pharmacologist, 10, 189 (1968)]. This property is the basis of a mouse test for narcotic antagonists.
Female CF1 S mice (fasted 17-21 hrs.), 5 per dose, were injected orally or subcutaneously (loose skin inside hind limb) with test drug at 0.67, 2, 6, 18, 54 and 162 mg/kg or other appropriate doses in 0.20 ml 1% Methocel® per mouse. Ten minutes later, 40 mg/kg (base weight) of morphine sulfate in 0.20 ml 1% Methocel® per mouse was given subcutaneously (nape of neck). The mice were observed continuously for the next 20 minutes after the first mouse of a group of 30 had received morphine. Prevention of a 90° Straub tail during this observation period was taken as indication of narcotic antagonist ability.

[3] = tested on: Straub tail induced by morphine; details: literature, Blumberg et al. 1968; cited from earlier work

Row | Compound | analgesic activity (in words) [1] | prevention of morphine-induced Straub tail (in words) [3] | other results
1 | COc1ccc2c3c1O[C@H]1[C@@H](C)CC[C@@]4(O)[C@@H](C2)N(CC2CCCO2)CC[C@]314 (some centres unmarked) [Compound 6] | weakly analgetic |  | 
2 | C[C@H]1CC[C@@]2(O)[C@H]3Cc4ccc(O)c5c4[C@@]2(CCN3CC2CC2)[C@H]1O5 [Compound 1] |  |  | narcotic antagonism (in words) [2]: almost the antagonistic activity of naloxone
3 | C=CCN1CC[C@]23c4c5ccc(O)c4O[C@H]2[C@@H](O)C=C[C@H]3[C@H]1C5 [nalorphine] |  | prevent the induction of Straub tail in mice | 
4 | C[C@H]1CC[C@@]2(O)[C@H]3Cc4ccc(O)c5c4[C@@]2(CCN3CC2CCCO2)[C@H]1O5 (some centres unmarked) [Compound 7] | weakly analgetic |  | 
5 | C=CCN1CC[C@]23c4c5ccc(O)c4O[C@H]2C(=O)CC[C@@]3(O)[C@H]1C5 [Naloxone] |  | prevent the induction of Straub tail in mice | 
